Patent US9084735B2, “Self-assembling bis-urea compounds for drug delivery” (International Business Machines Corporation, priority 2013, dated 2015)

Tests used:
[1] = tested on: S. aureus (ATCC No. 6538); assay: MIC by broth microdilution (OD600 growth inhibition); type: cell-based, Staphylococcus aureus; conditions: for growth inhibition of S. aureus by nanofibers alone (OD): blank nanofibers without drug
Description: The minimum inhibitory concentrations (MICs) of the penG-loaded nanofibers were measured using a broth microdilution method. First, penG-loaded nanofiber solutions were diluted to give final penG concentrations of 0.05, 0.1, 0.5, 1.0, 5.0 and 10.0 mg/L. S. aureus was grown in tryptic soy broth (TSB) at 37° C. with 300 rpm. The optical density (OD) of the S. aureus solution was adjusted to OD600 nm=0.1 by the addition of TSB. This S. aureus solution was further diluted 100 times (5.7×10^6 CFU/mL). The penG-loaded nanofiber solution (100 microliters) was transferred to each well of a 96 well plate (NUNC), followed by the addition of 100 microliters of the S. aureus solution. TSB was used as a control. The optical density readings of S. aureus solutions were monitored by measuring OD600 nm at predetermined times (0 hours and 18 hours). The assay was performed in four replicates for each sample and the experiments were repeated at least three times.

[2] = Zeta potential of cationic nanofibers before and after drug encapsulation (piperacillin); type: physicochemical; conditions: for zeta potential of nanofibers after drug loading: after piperacillin loading; for zeta potential of nanofibers before drug loading: before piperacillin loading
Description: The zeta potential of cationic nanofibers before and after drug encapsulation was investigated using the drug piperacillin and C-4 and C-14. […] The zeta potential values of nanofibers of C-14 before and after drug loading were 36.3 and 21.1 mV, respectively. The reduced zeta potential was attributed to the electrostatic interaction between cationic nanofiber and the drug. This proves the formation of a complex between cationic nanofiber and the drug.

[3] = Critical micelle concentration of cationic compounds; type: physicochemical; conditions: in water
[4] = Nanofiber morphology by TEM; type: physicochemical; conditions: C-4 200 mg/L, C-14 80 mg/L
Description: The morphologies of the cationic compounds were analyzed by TEM (FEI Tecnai G^2 F20 electron microscope). Cationic compounds solution (5 microliters) were placed on a copper grid coated with carbon film and incubated for 1 minute. Phosphotungstic acid solution (0.1 w/v, 5 microliters) was applied and incubated for another minute. The extra sample on the grid was absorbed by filter paper. The samples were air-dried at room temperature. The TEM observations were carried out with an electron kinetic energy of 200 keV.
FIGS. 2A to 2C are transmission electron micrographs (TEM) of a cast film of the nanofibers formed with C-4 at different magnifications.

[5] = Nanofiber dimensions by AFM; type: physicochemical; conditions: film/solution on mica
Description: Atomic force microscopy (AFM) images were acquired on commercial instrumentation under fluid in intermittent contact (‘tapping’) mode at a 0.5 Hz scan rate with silicon on nitride cantilevers of spring constant about 0.35 N/m. For this study, images were collected over scan areas from 1×1 micrometer to 10×10 micrometers at 1024×1024 pixel resolution. Samples were prepared by depositing 60 microliters of polymer solution (at a concentration appropriate for imaging) in water on mica. The statistical mean height (zm) of the nanoparticles was obtained through Gwyddion software for particle analysis using height threshold algorithm.
The dry nanofiber AFM (FIG. 3A) and solution AFM (FIGS. 3B and 3C) of nanofibers formed with C-4 show anisotropic structures having considerably shorter lengths and an average diameter of 4 nm.

| minimum concentration suppressing growth (MIC) ([1]; penG concentration, 18 hours, 5.7×10^6 CFU/mL, TSB) | average fiber diameter (AFM) [5] | Compound | growth inhibition of S. aureus by nanofibers alone (OD) [1] | zeta potential of nanofibers after drug loading [2] | zeta potential of nanofibers before drug loading [2] | CMC [3] | fiber diameter (TEM) [4] | fiber length (TEM) [4] |
| --- | --- | --- | --- | --- | --- | --- | --- | --- |
|  |  | NCc1ccc(CNC(=O)Nc2ccc(CNC(=O)c3ccc(C(=O)NCc4ccc(NC(=O)NCc5ccc(CN)cc5)cc4)cc3)cc2)cc1 [Compound C-14] | do not inhibit growth | 21.1 mV | 36.3 mV | 20 mg/L | ~5 nm | several hundred |
| 0.05 µg/mL |  | CC1(C)S[C@@H]2[C@H](NC(=O)Cc3ccccc3)C(=O)N2[C@H]1C(=O)[O-].[K+] [penG, Penicillin G potassium salt, reference compound] |  |  |  |  |  |  |
|  | 4 nm | NCCCCNC(=O)Nc1ccc(CNC(=O)c2ccc(C(=O)NCc3ccc(NC(=O)NCCCCN)cc3)cc2)cc1 [Compound C-4] | do not inhibit growth | 23.1 mV | 35.2 mV | 12 mg/L |  | several hundred |
